Measured values reported in patent US20040010001A1, “Methods and compositions for modulating cell proliferation and cell death” (priority 1999, published 2004).
Read-outs that look alike come from different tables or passages of the source.

What was measured:
Format in all cases: cell-based
[1] = system: rat primary tumors, histocultures; test: Drug effect in histocultures of rat primary tumors (inhibition of 3H-thymidine incorporation); settings: Histocultures, Primary, 96 hours, read-out: Concentration producing 50% inhibition
[2] = system: rat primary tumor cells, monolayers; test: Drug effect in monolayers of rat primary tumor cells (inhibition of bromodeoxyuridine incorporation); settings: 96 h, read-out: Concentration producing 50% inhibition
[3] = system: Rat prostate MAT-LyLu; test: FGF-induced resistance, inhibition of BrdU incorporation; settings: read-out: Drug concentration needed to produce 50% inhibition
Method: (§1) Prior to drug treatment, cells were incubated for 4 days with tumor CM or with r-aFGF ad/or r-bFGF-containing medium, supplemented with 1% FBS (final protein concentration adjusted to 2 mg/ml). The medium was renewed every other day.
(§2) The antiproliferative drug effect in histocultures was measured as inhibition of ^3H-thymidine incorporation quantified by autoradiography (Yen, W. C. et al. (1996) Pharm. Res. 13:1305-1312) and, for monolayers, as inhibition of BrdU incorporation or as reduction of total proteins by the sulforhodamine B assay (Au, J. L.-S. et al. (1998) Cancer Res. 58:2141-2148). For the latter, the two assays yielded qualitatively similar results. Cell kill induced by 96-hour drug treatment was monitored by the release of LDH into the culture medium. LDH activity was monitored by the conversion of tetrazolium to formazan (detected at 490 nm).
(§3) The experimental conditions are described briefly below. Cells were pretreated with human recombinant r-aFGF and/or r-bFGF for 96 hours and then with drugs for 96 hours. For the studies on cells derived from the human prostate, lung, pharynx, colon and breast cancer cells, the drug effect was determined by the inhibition of BrdU incorporation. For the study on the human leukemic cells, the drug effect was measured by the MTT assay, which measures the number of metabolically active cells (Alley, M. C. et al (1988) Cancer Res 48:589-601).

[4] = system: Human breast MCF7; test: as above; settings: read-out: Drug concentration needed to produce 50% inhibition
Method: as §1, §2, §3

[5] = system: Human colon HT-29; test: as above; settings: read-out: Drug concentration needed to produce 50% inhibition
Method: as §1, §2, §3

[6] = system: Human lung A459; test: as above; settings: read-out: Drug concentration needed to produce 50% inhibition
Method: as §1, §2, §3

[7] = system: Human pharynx FaDu; test: as above; settings: read-out: Drug concentration needed to produce 50% inhibition
Method: as §1, §2, §3

[8] = system: Human prostate PC3 tumor cells; test: Drug treatment and extracellular bFGF (ELISA), LDH release, cell number; settings: for Extracellular LDH, % of control / Extracellular bFGF, % of control / Extracellular concentration bFGF / bFGF:LDH ratio: 72 hours
Method: The experimental conditions are described briefly below. […] The remaining cell number at the end of treatment was counted using a Coulter counter. The extracellular bFGF concentration was measured using ELISA. The release of lactate dehydrogenase (LDH) into the extracellular culture medium is indicative of cell death and gives a measure of the release of cellular content into the culture medium. If the increase in extracellular bFGF level is due to the release of bFGF upon cell death and lysis, the increase in bFGF will be accompanied by an increase in LDH in the same extent. This would result in an higher bFGF level and a constant bFGF-to-LDH ratio. On the other hand, an increase in extracellular bFGF due to an increase in bFGF production and release of bFGF from cells by processes other than cell lysis will result in an higher bFGF level and an higher bFGF-to-LDH ratio.

[9] = system: rat lymph node metastasis cells, monolayers; test: Drug effect in monolayers of rat lymph node metastasis cells (inhibition of bromodeoxyuridine incorporation); settings: 96 h, read-out: Concentration producing 50% inhibition
[10] = system: rat lung metastasis cells, monolayers; test: Drug effect in monolayers of rat lung metastasis cells (inhibition of bromodeoxyuridine incorporation); settings: 96 h, read-out: Concentration producing 50% inhibition

`O=c1[nH]cc(F)c(=O)[nH]1` [5-Fluorouracil] showed an IC50 [1] of 33000 ± 12000 nM, an IC50 ([2]; Monolayers (passage 0)) of 790 ± 40 nM and an IC50 ([2]; Monolayers (passage 1)) of 850 ± 30 nM. It also gave an IC50 ([2]; Monolayers (passage 2)) of 790 ± 60 nM, an IC50 ([2]; Monolayers (passage 3)) of 780 ± 40 nM and an IC50 ([3]; r-bFGF 0 ng/ml) of 746 nM. For the same molecule, the IC50 ([3]; r-bFGF 1 ng/ml) was 1050 nM, the IC50 ([3]; r-bFGF 10 ng/ml) was 1990 nM and the IC50 ([3]; r-bFGF 50 ng/ml) was 3250 nM. It also gave an IC50 ([4]; MCF7, r-bFGF 0 ng/ml) of 991 nM, an IC50 ([4]; MCF7, r-bFGF 0.01 ng/ml) of 1030 nM and an IC50 ([4]; MCF7, r-bFGF 0.1 ng/ml) of 1370 nM. The IC50 ([4]; MCF7, r-bFGF 1 ng/ml) was 1510 nM, the IC50 ([5]; HT-29, 96 h, r-aFGF + r-bFGF 0 ng/ml) was 1640 nM and the IC50 ([5]; HT-29, 96 h, r-aFGF + r-bFGF 0.04 ± 1 ng/ml) was 1760 nM. For the same molecule, the IC50 ([5]; HT-29, 96 h, r-aFGF + r-bFGF 0.08 ± 1 ng/ml) was 1550 nM, the IC50 ([5]; HT-29, 96 h, r-aFGF + r-bFGF 0.16 ± 1 ng/ml) was 1610 nM and the IC50 ([5]; HT-29, 96 h, r-aFGF + r-bFGF 0.32 ± 1 ng/ml) was 2770 nM. The IC50 ([5]; HT-29, 96 h, r-aFGF + r-bFGF 0.64 ± 1 ng/ml) was 5210 nM, the IC50 ([5]; HT-29, 96 h, r-aFGF + r-bFGF 1 ± 1 ng/ml) was 7070 nM and the IC50 ([5]; HT-29, r-aFGF 0 ng/ml) was 1640 nM. The IC50 ([5]; HT-29, r-aFGF 1 ng/ml) was 1620 nM, the IC50 ([5]; HT-29, r-aFGF 10 ng/ml) was 1580 nM and the IC50 ([5]; HT-29, r-aFGF 50 ng/ml) was 1630 nM. For the same molecule, the IC50 ([5]; HT-29, r-bFGF 0 ng/ml) was 2090 nM, the IC50 ([5]; HT-29, r-bFGF 1 ng/ml) was 2360 nM and the IC50 ([5]; HT-29, r-bFGF 10 ng/ml) was 2230 nM. For the same molecule, the IC50 ([5]; HT-29, r-bFGF 50 ng/ml) was 2250 nM, the IC50 ([6]; A459, 96 h, r-aFGF + r-bFGF 0 ng/ml) was 862 nM and the IC50 ([6]; A459, 96 h, r-aFGF + r-bFGF 0.04 ± 1 ng/ml) was 908 nM. For the same molecule, the IC50 ([6]; A459, 96 h, r-aFGF + r-bFGF 0.08 ± 1 ng/ml) was 995 nM, the IC50 ([6]; A459, 96 h, r-aFGF + r-bFGF 0.16 ± 1 ng/ml) was 1010 nM and the IC50 ([6]; A459, 96 h, r-aFGF + r-bFGF 0.32 ± 1 ng/ml) was 1620 nM. It also gave an IC50 ([6]; A459, 96 h, r-aFGF + r-bFGF 0.64 ± 1 ng/ml) of 2090 nM, an IC50 ([6]; A459, 96 h, r-aFGF + r-bFGF 1 ± 1 ng/ml) of 3630 nM and an IC50 ([6]; A459, r-bFGF 0 ng/ml) of 870 nM. It also gave an IC50 ([6]; A459, r-bFGF 1 ng/ml) of 1010 nM, an IC50 ([6]; A459, r-bFGF 10 ng/ml) of 1380 nM and an IC50 ([6]; A459, r-bFGF 50 ng/ml) of 1710 nM. The IC50 ([7]; 96 h, r-aFGF + r-bFGF 0 ng/ml) was 5760 nM, the IC50 ([7]; 96 h, r-aFGF + r-bFGF 0.04 ± 1 ng/ml) was 5440 nM and the IC50 ([7]; 96 h, r-aFGF + r-bFGF 0.08 ± 1 ng/ml) was 5440 nM. The IC50 ([7]; 96 h, r-aFGF + r-bFGF 0.16 ± 1 ng/ml) was 5470 nM, the IC50 ([7]; 96 h, r-aFGF + r-bFGF 0.32 ± 1 ng/ml) was 5560 nM and the IC50 ([7]; 96 h, r-aFGF + r-bFGF 0.64 ± 1 ng/ml) was 9690 nM. For the same molecule, the IC50 ([7]; 96 h, r-aFGF + r-bFGF 1 ± 1 ng/ml) was 15200 nM, the IC50 ([7]; r-aFGF 0 ng/ml) was 5750 nM and the IC50 ([7]; r-aFGF 1 ng/ml) was 5500 nM. For the same molecule, the IC50 ([7]; r-aFGF 10 ng/ml) was 5450 nM, the IC50 ([7]; r-aFGF 50 ng/ml) was 5250 nM and the IC50 ([7]; r-bFGF 0 ng/ml) was 4340 nM. It also gave an IC50 ([7]; r-bFGF 1 ng/ml) of 4560 nM, an IC50 ([7]; r-bFGF 10 ng/ml) of 4790 nM and an IC50 ([7]; r-bFGF 50 ng/ml) of 4250 nM. The “Remaining cell number at 72 hours (% of control)” value ([8]; drug concentration 2000 NM) was 88%, the “Remaining cell number at 72 hours × 10^6” value ([8]; drug concentration 2000 NM) was 2.2 × 10^6 and the “Extracellular LDH, % of control” value ([8]; drug concentration 2000 NM) was 121 % of control. For the same molecule, the “Extracellular bFGF, % of control” value ([8]; drug concentration 2000 NM) was 139 % of control, the “Extracellular concentration bFGF” value ([8]; drug concentration 2000 NM) was 8.37 pg/mL and the “bFGF:LDH ratio” value ([8]; drug concentration 2000 NM) was 1.15. The “Remaining cell number at 72 hours (% of control)” value ([8]; drug concentration 6000 NM) was 56%, the “Remaining cell number at 72 hours × 10^6” value ([8]; drug concentration 6000 NM) was 1.4 × 10^6 and the “Extracellular LDH, % of control” value ([8]; drug concentration 6000 NM) was 158 % of control. For the same molecule, the “Extracellular bFGF, % of control” value ([8]; drug concentration 6000 NM) was 189 % of control, the “Extracellular concentration bFGF” value ([8]; drug concentration 6000 NM) was 11.35 pg/mL and the “bFGF:LDH ratio” value ([8]; drug concentration 6000 NM) was 1.20. The “Remaining cell number at 72 hours (% of control)” value ([8]; drug concentration 20000 NM) was 24%, the “Remaining cell number at 72 hours × 10^6” value ([8]; drug concentration 20000 NM) was 0.6 × 10^6 and the “Extracellular LDH, % of control” value ([8]; drug concentration 20000 NM) was 202 % of control. For the same molecule, the “Extracellular bFGF, % of control” value ([8]; drug concentration 20000 NM) was 296 % of control, the “Extracellular concentration bFGF” value ([8]; drug concentration 20000 NM) was 17.8 pg/mL and the “bFGF:LDH ratio” value ([8]; drug concentration 20000 NM) was 1.46. It also gave an IC50 ([9]; Monolayers (passage 0)) of 1900 ± 60 nM, an IC50 ([9]; Monolayers (passage 1)) of 1290 ± 60 nM and an IC50 ([9]; Monolayers (passage 2)) of 1090 ± 40 nM. The IC50 ([9]; Monolayers (passage 3)) was 830 ± 100 nM, the IC50 ([10]; Monolayers (passage 0)) was 2840 ± 240 nM and the IC50 ([10]; Monolayers (passage 1)) was 1520 ± 80 nM. For the same molecule, the IC50 ([10]; Monolayers (passage 2)) was 1200 ± 40 nM and the IC50 ([10]; Monolayers (passage 3)) was 810 ± 40 nM.
